The values below come from article PMC10631261 (Chemical Science, 2023).

SMILES strings stand for the structures. Where “and” joins values, the source holds several entries; their conditions need not be identical. Equal entries are not always repeated. Where two headings read alike, the source gives them in different places.

For one test, the target named is T1, FIH (Homo sapiens, UniProt Q9NWT6).
T1 construct: made in house
The test can be described thus: SPE-MS FIH inhibition assay. The format is biochemical. To be noted: for reduction of FIH inhibition compared to 4: IC50 comparison with compound 4. How it is done: (§1) Protein production and purification
(§2) PAGE analysis) according to established procedures.
(§3) FIH, PHD2, AspH, JMJD5 and KDM4A inhibition assays
(§4) The in vitro FIH,1, 2 PHD2,1 AspH,38 JMJD536 and KDM4A39 inhibition assays were performed as […]
(§5) KDM4A). Synthetic peptide substrates were used: HIF-1α C-terminal transactivation domain fragment […]
(§6) H3Lys9 bearing three methyl groups at the N ϵ position, H3Lys4 substituted by an Ala and H3Lys14 substituted by an Ile residue) for KDM4A.39 Peptides were prepared as C-terminal amides by GL Biochem (Shanghai) Ltd. Peptide hydroxylation in the case of FIH, PHD2, AspH and JMJD5 (+16 Da mass shift) or peptide demethylation in the case of KDM4A ( -14 Da mass shift) was monitored by SPE-MS. […]

In the next test the target is PHD2 (Homo sapiens, UniProt Q9GZT9). Description: biochemical. How it is done:
(§7) 3. Biochemical procedures
as §1, §2, §3, §4, §5, §6

The next test has as its target AspH (Homo sapiens, UniProt Q12797). Description: biochemical.
Source text: (§8) To investigate the potential of BNS for selective FIH inhibition, its selectivity was investigated with respect to other 2OG-dependent protein oxidising enzymes, that is PHD2, Jumonji-C domain-containing protein 5 (JMJD5), aspartate/asparagine-β-hydroxylase (AspH) and KDM4A, using reported SPE-MS inhibition assays.[58,61,69,70] In addition to PHD2 and KDM4A, we included AspH and JMJD5 in our selectivity studies, because AspH, like FIH, catalyses protein aspartate- and asparagine-residue hydroxylation (although in epidermal growth factor-like domains),[71,72] and because JMJD5 is structurally closely related to FIH.[73,74]
as §7, §1, §2, §3, §4, §5, §6

A further test concerns the target JMJD5 (Homo sapiens, UniProt Q8N371). Description: biochemical.
Source text: as §8, §7, §1, §2, §3, §4, §5, §6

The target of another test is KDM4A (Homo sapiens, UniProt O75164). Description: biochemical. The format is biochemical.
Source text: as §8, §7, §1, §2, §3, §4, §5, §6

The mark [1] stands for this setting: 0.15 μM FIH, 10.0 μM 2OG, 5.0 μM HIF-1α C-TAD788–822, SPE-MS, read-out: FIH IC50.

Chain of AspH (Q12797 315-758): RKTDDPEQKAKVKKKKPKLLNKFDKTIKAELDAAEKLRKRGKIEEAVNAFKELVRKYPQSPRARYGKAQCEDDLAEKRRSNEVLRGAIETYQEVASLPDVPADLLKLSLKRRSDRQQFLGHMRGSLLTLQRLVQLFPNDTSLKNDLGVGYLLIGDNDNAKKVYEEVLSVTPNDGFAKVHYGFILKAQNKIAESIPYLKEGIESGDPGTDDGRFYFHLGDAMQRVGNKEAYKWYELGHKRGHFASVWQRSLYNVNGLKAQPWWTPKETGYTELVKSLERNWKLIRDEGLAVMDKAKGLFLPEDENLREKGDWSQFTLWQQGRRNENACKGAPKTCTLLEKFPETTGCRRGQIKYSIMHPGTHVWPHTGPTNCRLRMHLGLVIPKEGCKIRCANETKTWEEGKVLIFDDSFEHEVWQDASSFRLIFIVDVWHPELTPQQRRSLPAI
T1 sequence (Q9NWT6 whole entry): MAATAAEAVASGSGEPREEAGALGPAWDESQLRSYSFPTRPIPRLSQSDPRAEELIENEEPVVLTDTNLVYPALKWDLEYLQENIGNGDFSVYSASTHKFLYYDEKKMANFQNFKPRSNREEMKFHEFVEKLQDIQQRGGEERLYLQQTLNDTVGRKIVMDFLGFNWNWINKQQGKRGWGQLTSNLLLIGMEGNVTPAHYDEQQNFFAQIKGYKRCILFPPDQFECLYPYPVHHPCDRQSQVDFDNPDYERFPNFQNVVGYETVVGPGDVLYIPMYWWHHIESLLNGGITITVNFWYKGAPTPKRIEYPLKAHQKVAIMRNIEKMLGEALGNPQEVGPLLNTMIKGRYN
Chain of PHD2 (Q9GZT9 181-426): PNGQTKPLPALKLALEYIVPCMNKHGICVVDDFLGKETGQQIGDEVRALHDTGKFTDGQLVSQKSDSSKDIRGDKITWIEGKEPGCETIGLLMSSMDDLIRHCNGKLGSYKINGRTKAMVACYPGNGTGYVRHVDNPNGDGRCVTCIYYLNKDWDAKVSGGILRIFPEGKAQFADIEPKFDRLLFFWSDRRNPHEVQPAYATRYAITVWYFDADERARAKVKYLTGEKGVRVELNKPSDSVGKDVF
Chain of KDM4A (O75164 1-359): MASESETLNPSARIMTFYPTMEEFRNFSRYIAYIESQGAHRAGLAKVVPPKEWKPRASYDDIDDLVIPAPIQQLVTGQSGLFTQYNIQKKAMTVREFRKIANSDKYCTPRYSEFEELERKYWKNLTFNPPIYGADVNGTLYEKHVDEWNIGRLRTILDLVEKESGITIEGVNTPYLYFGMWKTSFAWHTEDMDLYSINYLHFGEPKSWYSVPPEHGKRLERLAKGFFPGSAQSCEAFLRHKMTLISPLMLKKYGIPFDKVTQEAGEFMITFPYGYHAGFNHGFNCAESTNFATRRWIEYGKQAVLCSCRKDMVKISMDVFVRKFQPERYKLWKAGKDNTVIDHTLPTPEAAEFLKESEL
Chain of JMJD5 (Q8N371 whole entry): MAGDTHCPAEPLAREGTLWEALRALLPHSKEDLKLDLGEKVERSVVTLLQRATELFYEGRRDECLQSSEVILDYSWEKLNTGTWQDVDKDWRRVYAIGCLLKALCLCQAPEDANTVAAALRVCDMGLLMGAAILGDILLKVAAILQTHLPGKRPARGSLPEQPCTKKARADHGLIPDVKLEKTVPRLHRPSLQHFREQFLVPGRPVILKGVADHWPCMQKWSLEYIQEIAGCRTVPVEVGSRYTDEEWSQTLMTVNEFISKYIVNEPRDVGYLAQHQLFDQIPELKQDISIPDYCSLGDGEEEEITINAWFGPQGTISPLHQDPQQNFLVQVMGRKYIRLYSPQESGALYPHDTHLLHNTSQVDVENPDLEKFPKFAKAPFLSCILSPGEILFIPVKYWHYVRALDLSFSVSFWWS

What is called IC50 is the midpoint of a concentration-inhibition curve. Turning to `C[C@@H]1CN(S(=O)(=O)c2ccccc2)C[C@H]1C(=O)/N=c1\scc(CC(=O)O)n1O` (relative stereo) [compound 30], the IC50 against FIH was 1.7 ± 0.4 µM; against PHD2 it was 71.7 ± 26.6 µM; on AspH it was over 100 µM; on JMJD5 (read-out: JMJD5 IC50) it was 25.6 ± 0.6 µM; against KDM4A, over 100 µM.

On to `O=C(O)Cc1cs/c(=N\C(=O)CS(=O)(=O)Cc2ccc3ccccc3c2)n1O` [BNS, reference compound], for which the IC50 against FIH is 0.3 ± 0.07 µM; against PHD2 (0.15 μM PHD2 181–426, 10.0 μM 2OG, 5.0 μM HIF-1α CODD556–574, SPE-MS), 0.11 µM; at AspH it was 3.36 µM and 3.4 µM; on JMJD5 (read-out: JMJD5 IC50), 0.25 ± 0.01 µM; against KDM4A, 67.4 ± 39.8 µM. Also, the “increase in FIH inhibitory activity compared with other PHD inhibitors” value at FIH (as judged by IC50 comparison, ESI Table S1) is on record as over 50 fold. In addition, the “selectivity for FIH inhibition over PHD2 inhibition” value on FIH (as judged by IC50 values) is given as about 0.4 fold.

With `O=C(O)CNC(=O)c1c(O)c2ccccc2n(OCC2CC2)c1=O` [Desidustat, reference compound], on FIH, the IC50 amounted to 41.4 ± 1.1 µM.

The compound `O=C(O)CNC(=O)c1c(O)cc(CCc2ccccc2)n2ncnc12` [Enarodustat, reference compound] gave an IC50 against FIH of over 100 µM.

For `O=C(O)CNC(=O)c1c(O)c2cc(F)ccc2n(CCC2CC2)c1=O` [GSK360A, reference compound], the IC50 at FIH (setting [1]) was over 100 µM.

As for `O=C(O)c1cnn(-c2nc3cc(OC(F)(F)F)c(Cl)cc3[nH]2)c1` [JNJ-42041935, reference compound], on FIH (setting [1]), the half-inhibitory concentration (IC50) was determined as 56.4 ± 1.6 µM.

As for `O=C(O)CNC(=O)C1=C(O)CCN(Cc2ccc(Oc3ccc(Cl)cc3)nc2)C1=O` [TP0463518, reference compound], the IC50 at FIH (setting [1]) came out at 39.7 ± 0.6 µM.

In the case of `CCOC(=O)Cc1cs/c(=N\C(=O)CS(=O)(=O)c2ccccc2)n1O` [compound 3], the IC50 against FIH is over 100 µM; at PHD2 it was over 100 µM; against AspH, 68 ± 26.8 µM; at JMJD5 (read-out: JMJD5 IC50) it was over 100 µM; against KDM4A it was over 100 µM.

For the compound `O=C(O)Cc1cs/c(=N\C(=O)CS(=O)(=O)c2ccccc2)n1O` [compound 4], the IC50 against FIH is 0.28 µM; on AspH it was 9.6 ± 1.3 µM; at JMJD5 (read-out: JMJD5 IC50), 0.48 ± 0.01 µM; at KDM4A, over 100 µM.

`O=C(O)Cc1csc(NC(=O)CS(=O)(=O)c2ccccc2)n1` [compound 5]: the IC50 against FIH, against PHD2, against AspH, on JMJD5 (read-out: JMJD5 IC50) and at KDM4A was over 100 µM throughout.

Consider `CC(C(=O)O)c1cs/c(=N\C(=O)CS(=O)(=O)c2ccccc2)n1O` (stereo not shown) [compound 6], for which the IC50 against FIH is 61 ± 3.1 µM; on AspH it was 25.6 ± 12.7 µM; at JMJD5, 60.5 ± 1 µM; at KDM4A, over 100 µM. Further, the “reduction of FIH inhibition compared to 4” value (“reduction of FIH inhibition” below) at FIH is listed as over 100 fold.

For `Cc1s/c(=N\C(=O)CS(=O)(=O)c2ccccc2)n(O)c1CC(=O)O` [compound 7], the IC50 was 36.7 ± 4.9 µM on FIH, 24.3 ± 12.3 µM against AspH, over 100 µM on JMJD5 (read-out: JMJD5 IC50) and over 100 µM against KDM4A. Further, on FIH, the “reduction of FIH inhibition” value is reported as over 100 fold.

Take `O=C(CS(=O)(=O)c1ccccc1)/N=c1\sccn1O` [compound 8]: the IC50 against FIH, against PHD2, against AspH, at JMJD5 (read-out: JMJD5 IC50) and at KDM4A was over 100 µM throughout.

Turning to `COC(=O)Cc1cs/c(=N\C(=O)CS(=O)(=O)c2ccccc2)n1O` [compound 9], the IC50 on FIH is over 100 µM; on PHD2, over 100 µM; on AspH, 96.7 ± 3.2 µM; on JMJD5 (read-out: JMJD5 IC50), over 100 µM; against KDM4A it was over 100 µM.

`CNC(=O)Cc1cs/c(=N\C(=O)CS(=O)(=O)c2ccccc2)n1O` [compound 10]: the IC50 on FIH is over 100 µM; on PHD2, over 100 µM; against AspH, 43.6 ± 3.7 µM; on JMJD5 (read-out: JMJD5 IC50), 77.5 ± 23.8 µM; on KDM4A, over 100 µM.

In the case of `N#CCc1cs/c(=N\C(=O)CS(=O)(=O)c2ccccc2)n1O` [compound 11], the IC50 against FIH, against PHD2, against AspH, at JMJD5 (read-out: JMJD5 IC50) and against KDM4A was over 100 µM each time.

Turning to `O=C(CS(=O)(=O)c1ccccc1)/N=c1\scc(Cn2ccnn2)n1O` [compound 12], the IC50 against FIH is over 100 µM; at PHD2, over 100 µM; against AspH it was 83.3 ± 6.7 µM; on JMJD5 (read-out: JMJD5 IC50), over 100 µM; at KDM4A, over 100 µM.

For the compound `O=C(O)CCc1cs/c(=N\C(=O)CS(=O)(=O)c2ccccc2)n1O` [compound 13], the IC50 is 2.2 ± 0.6 µM against FIH, 47.3 ± 4.7 µM against AspH, over 100 µM on JMJD5 (read-out: JMJD5 IC50) and over 100 µM against KDM4A. For the same compound, the “reduction of FIH inhibition” value at FIH was about 10 fold.

For the compound `CC(=O)/N=c1\scc(CC(=O)O)n1O` [compound 14], the IC50 was 52.4 ± 30.4 µM on FIH; over 100 µM at PHD2; over 100 µM against AspH; 3.2 ± 0.7 µM at JMJD5 (read-out: JMJD5 IC50); over 100 µM against KDM4A. The “reduction of FIH inhibition” value at FIH is over 200 fold.

Consider `O=C(O)Cc1cs/c(=N\C(=O)CCS(=O)(=O)c2ccccc2)n1O` [compound 15], for which the IC50 against FIH was 0.3 ± 0.05 µM; on PHD2, 2.7 ± 0.2 µM; against AspH it was 33 ± 12.1 µM; at JMJD5 (read-out: JMJD5 IC50), 3.3 ± 1.5 µM; on KDM4A, over 100 µM.

As for `O=C(O)Cc1cs/c(=N\C(=O)CNC(=O)c2ccccc2)n1O` [compound 16], the IC50 is 1.2 ± 0.2 µM against FIH, 2.4 ± 1.1 µM on AspH, 1.7 ± 0.3 µM at JMJD5 (read-out: JMJD5 IC50) and over 100 µM against KDM4A.

`O=C(O)Cc1cs/c(=N\C(=O)CCC(=O)Nc2ccccc2)n1O` [compound 18]: the IC50 on FIH is 6 ± 1.2 µM; against PHD2, 2.3 ± 0.1 µM; at AspH it was 3.7 ± 1.5 µM; at JMJD5 (read-out: JMJD5 IC50) it was 8.4 ± 2.7 µM; against KDM4A, over 100 µM.

Regarding `O=C(O)Cc1cs/c(=N\C(=O)CCNS(=O)(=O)c2ccccc2)n1O` [compound 20], the IC50 was 1 ± 0.1 µM at FIH; 6.5 ± 1.8 µM against PHD2; 23.3 ± 10.1 µM on AspH; 13.4 ± 6.5 µM on JMJD5 (read-out: JMJD5 IC50); over 100 µM against KDM4A. Moreover, the “reduction of FIH inhibition” value at FIH is recorded as about 3 fold. For the same compound, the “selectivity for FIH inhibition over JMJD5 inhibition” value at FIH (as judged by IC50 values) is about 13 fold. The “selectivity for FIH inhibition over PHD2 inhibition” value on FIH (as judged by IC50 values) is recorded as about 6 fold.

As to `O=C(O)Cc1cs/c(=N\C(=O)CS(=O)(=O)Nc2ccccc2)n1O` [compound 21], the IC50 at FIH is 0.36 ± 0.21 µM; at PHD2 it was 0.57 ± 0.18 µM; against AspH, 0.76 ± 0.1 µM; at JMJD5 (read-out: JMJD5 IC50), 2.8 ± 0.9 µM; against KDM4A it was over 100 µM. Moreover, the “AspH inhibition potency relative to 4 (more potent)” value on AspH (IC50 comparison with compound 4) is on record as about 5 fold.

As to `O=C(O)Cc1cs/c(=N\C(=O)COc2ccccc2)n1O` [compound 22], the IC50 was 0.75 ± 0.23 µM against FIH, 20.2 ± 6.6 µM on AspH, 1.2 ± 0.2 µM on JMJD5 (read-out: JMJD5 IC50) and over 100 µM against KDM4A.

Turning to `O=C(O)Cc1cs/c(=N\C(=O)CNc2ccccc2)n1O` [compound 23], the IC50 against FIH came out at 3.2 ± 1.1 µM; against AspH, 11.1 ± 0.4 µM; at JMJD5 (read-out: JMJD5 IC50), 4.7 ± 1.1 µM; at KDM4A, 71.6 ± 11.8 µM.

In the case of `O=C(O)Cc1cs/c(=N\C(=O)C2CCCN(S(=O)(=O)c3ccccc3)C2)n1O` (stereo not shown) [compound 27], the IC50 is 0.87 ± 0.04 µM against FIH; 11 ± 1.6 µM against PHD2; 49.1 ± 1.7 µM against AspH; 13.4 ± 1 µM at JMJD5 (read-out: JMJD5 IC50); over 100 µM against KDM4A.
